Where “and” joins values, the source holds several entries; their conditions need not be identical. Identical values can stand only once.
Tests used:
[1] = system: PfCRT variant E207D; test: CQ uptake assay, oocytes expressing E207D; format: cell-based, Plasmodium falciparum
Method: (§1) Site-directed mutagenesis of PfCRT^Dd2 was performed as described using the megaprimer method with overlap extension[21],[54]. The primer pairs used are listed in Supplementary Table 6. Please note that a codon-optimized and oocyte-adapted version of PfCRT^Dd2 was used[22] (Supplementary Fig. 16). The resulting DNA fragment was cloned into the SP64T expression vector and verified by sequencing.
(§2) Oocytes were obtained as described previously. Briefly, adult (>2 years old) female X. laevis frogs (NASCO) were anesthetized in a cooled solution of ethyl 3-amino benzoate methanesulfonate (0.1%, w/v), followed by a surgical removal of parts of the ovary. The ovary lobes were carefully dissected and small pieces of oocytes were incubated in Ca^2+-free ND96 buffer (96 mM NaCl, 2 mM KCl, 1 mM MgCl2 buffered with 5 mM HEPES/NaOH, pH 7.5) supplemented with collagenase D (0.1%, w/v; Roche), BSA (0.5%, w/v), and 9 mm Na2HPO4 at 18 °C for 14-16 h while gentle shaking. After incubation, the oocytes were carefully washed several times with ND96 buffer (96 mM NaCl, 2 mM KCl, 1.8 mM CaCl2, 1 mM MgCl2 buffered with 5 mM HEPES/NaOH, pH 7.5) supplemented with 100 mg l^−1 gentamycin). Defolliculated and healthy-looking stage V-VI oocytes were manually selected for RNA microinjection. The RNA was generated as following: The codon-optimized sequences of PfCRT variants were cloned into the pSP64T expression vector. After vector linearization using the restriction endonucleases BamHI or SalI (New England Biolabs), transcription was performed using the in vitro SP6 mMessage mMachine Kit (Ambion)[34]. The obtained RNA was kept at −80 °C and diluted with nuclease-free water to a concentration of 0.6 μg μl^−1. Precision-bore glass capillary tubes (3.5-inch glass capillaries; Drummond Scientific Co.) were pulled on a vertical puller (P-87 Flaming/Brown micropipette puller, Sutter Instrument Co.), graduated, and placed on a microinjector (Nanoject II Auto-Nanoliter Injector, Drummond Scientific Co.). 50 nl of nuclease-free water alone (control oocytes) or 50 nl of 0.6 μg μl^−1 RNA were injected under stereomicroscopic control. Injected oocytes were incubated for 46–72 h at 18 °C with twice-daily buffer changes before usage in experiments.
(§3) Drug uptake assays were performed as described previously[21],[22],[24],[34]. […] The direction of radio-labeled drug transport is here from the mostly acidic extracellular solution (pH 4.5 or 6.0, as indicated) into the oocyte cytosol (pH ∼ 7.2), which corresponds to the efflux of drug from the acidic digestive vacuole (pH 5.2) into the parasite cytoplasm (pH 7.2). The topology of PfCRT in the oolemma is such that both the N- and C-terminus face the extracellular milieu[3],[22]. In the parasite, the N- and C-terminus face the lumen of the digestive vacuole. CQ uptake kinetics were performed by incubating oocytes in ND96 buffer adjusted to a pH of 4.5, 5.0, 5.5, or 6.0 and supplemented with 50 nM [^3H]CQ and one of 7 different CQ concentrations (10 µM, 50 µM, 100 µM, 200 µM, 300 µM, 400 µM, 500 µM CQ). The reaction was stopped at the 60 min time point, which is in the linear uptake range[22],[34] (Supplementary Fig. 17). For determination of the amount of drug uptake for each oocyte, the reaction medium was removed and the oocytes were washed three times with 2 ml of ice-cold ND96 buffer. Each oocyte was individually transferred to a scintillation vial containing 5% sodium dodecyl sulfate (200 μl) for lysis. The radioactivity of each sample was measured using a liquid scintillation analyzer Tri-Carb 4910 TR (PerkinElmer). Oocytes that were injected with water instead of RNA were analyzed in parallel, representing the uptake of a drug by diffusion and/or endogenous permeation pathways. The resulting value represents the “background“ level of drug accumulation in oocytes (in-depth discussion in[22]). […]

[2] = molecular target: T1, PfCRT variant E204A (Plasmodium falciparum, UniProt Q9N623, A220S/E204A/I356T/K76T/M74I/N326S/N75E/Q271E/R371I); test: CQ uptake assay, oocytes expressing E204A; format: cell-based
T1 sequence (Q9N623 1-424 M74I/N75E/K76T/E204A/A220S/Q271E/N326S/I356T/R371I): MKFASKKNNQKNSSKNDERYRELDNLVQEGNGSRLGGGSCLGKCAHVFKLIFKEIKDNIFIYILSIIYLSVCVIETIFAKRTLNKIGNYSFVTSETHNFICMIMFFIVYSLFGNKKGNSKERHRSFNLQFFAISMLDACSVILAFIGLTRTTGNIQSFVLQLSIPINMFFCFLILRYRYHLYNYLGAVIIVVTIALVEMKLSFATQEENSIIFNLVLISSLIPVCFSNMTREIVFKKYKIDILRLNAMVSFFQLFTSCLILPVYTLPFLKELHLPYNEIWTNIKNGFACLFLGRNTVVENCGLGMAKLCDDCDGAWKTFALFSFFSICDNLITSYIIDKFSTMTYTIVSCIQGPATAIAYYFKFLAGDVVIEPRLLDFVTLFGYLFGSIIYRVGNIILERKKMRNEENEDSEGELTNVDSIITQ
Method: as §1, §2, §3

[3] = system: PfCRT variant E207P; test: CQ uptake assay, oocytes expressing E207P; format: cell-based, Plasmodium falciparum
Method: as §1, §2, §3

[4] = E207D, 50 µM CQ, 1 h, mean ± SEM
[5] = pH 4.5, individual replicates, Fig 6b
[6] = pH 6.0, individual replicates, Fig 6b
[7] = ratio of activity pH 4.5 / pH 6.0
[8] = E204A, 50 µM CQ, 1 h, mean ± SEM
[9] = E207P, 50 µM CQ, 1 h, mean ± SEM

## CCN(CC)CCCC(C)Nc1ccnc2cc(Cl)ccc12 (stereo not drawn) [CQ, chloroquine]
[1]; [4]
  Activity at pH 4.5: 1.82 ± 0.06 pmol h-1 oocyte-1
  Activity at pH 6.0: 5.13 ± 0.37 pmol h-1 oocyte-1
[1]; E207D, CQ transport at pH 4.5 / pH 6.0
  R-value: 0.36 ± 0.05
[1]; [5]
  E207D transport activity pH 4.5: 1.93 pmol oocyte-1 h-1 and 1.78 pmol oocyte-1 h-1 and 1.98 pmol oocyte-1 h-1 and 1.89 pmol oocyte-1 h-1 and 1.82 pmol oocyte-1 h-1 and 1.51 pmol oocyte-1 h-1
[1]; [6]
  E207D transport activity pH 6.0: 4.59 pmol oocyte-1 h-1 and 4.25 pmol oocyte-1 h-1 and 6.63 pmol oocyte-1 h-1 and 6.08 pmol oocyte-1 h-1 and 4.42 pmol oocyte-1 h-1 and 4.78 pmol oocyte-1 h-1
[1]; [7]
  E207D R-value: 0.42 and 0.30 and 0.31 and 0.41 and 0.32
[2]; [8]
  Activity at pH 4.5: 1.43 ± 0.06 pmol h-1 oocyte-1
  Activity at pH 6.0: 2.98 ± 0.34 pmol h-1 oocyte-1
[2]; E204A, CQ transport at pH 4.5 / pH 6.0
  R-value: 0.51 ± 0.09
[2]; pH 4.5, single replicates, Fig 1d left
  E204A transport activity pH 4.5: 1.57 pmol oocyte-1 h-1 and 1.35 pmol oocyte-1 h-1 and 1.36 pmol oocyte-1 h-1
[2]; pH 4.5 vs pH 6.0, Fig 1d left
  E204A R-value: 0.72 and 0.42 and 0.38
[2]; pH 6.0, single replicates, Fig 1d left
  E204A transport activity pH 6.0: 2.18 pmol oocyte-1 h-1 and 3.22 pmol oocyte-1 h-1 and 3.54 pmol oocyte-1 h-1
[3]; [9]
  Activity at pH 4.5: 2.31 ± 0.3 pmol h-1 oocyte-1
  Activity at pH 6.0: 2.45 ± 0.21 pmol h-1 oocyte-1
[3]; E207P, CQ transport at pH 4.5 / pH 6.0
  R-value: 0.93 ± 0.05
[3]; [5]
  E207P transport activity pH 4.5: 2.94 pmol oocyte-1 h-1 and 1.66 pmol oocyte-1 h-1 and 2.34 pmol oocyte-1 h-1
[3]; [6]
  E207P transport activity pH 6.0: 2.94 pmol oocyte-1 h-1 and 2.08 pmol oocyte-1 h-1 and 2.34 pmol oocyte-1 h-1
[3]; [7]
  E207PR-value: 1.00 and 0.80

— PMC10349806 (Nature Communications, 2023)
